“And” between values parts separate entries of the source, which are not always exact repeats. Identical values can stand only once.
Columns and labels:
[1] = molar heat capacity at constant pressure; conditions: 101.33 kPa
[2] = Molar enthalpy of transition or fusion; conditions: Crystal; DSC

CC12CCC(CC1)C(C)(C)O2 [1,3,3-trimethyl-2-oxabicyclo[2.2.2]octane]
[1]
Conditions	molar heat capacity at constant pressure [J/K/mol]
273.4 K, Metastable liquid, Large sample (1 g) DSC	257.8
278.5 K, Large sample (1 g) DSC, Liquid	260.2
283.6 K, Large sample (1 g) DSC, Liquid	262.3
288.7 K, Large sample (1 g) DSC, Liquid	264.6
293.8 K, Large sample (1 g) DSC, Liquid	267.3
298.9 K, Large sample (1 g) DSC, Liquid	270.7
304 K, Large sample (1 g) DSC, Liquid	273.3
309.1 K, Large sample (1 g) DSC, Liquid	276.1
314.2 K, Large sample (1 g) DSC, Liquid	279.3
319.4 K, Large sample (1 g) DSC, Liquid	281.4
324.5 K, Large sample (1 g) DSC, Liquid	284.6
329.6 K, Large sample (1 g) DSC, Liquid	288
334.7 K, Large sample (1 g) DSC, Liquid	290.9
339.8 K, Large sample (1 g) DSC, Liquid	294.2
344.9 K, Large sample (1 g) DSC, Liquid	297.3
350 K, Large sample (1 g) DSC, Liquid	301.2
355.1 K, Large sample (1 g) DSC, Liquid	304.6

Conditions	vapor or sublimation pressure
238.2 K, Crystal, Closed cell (Static) method	0.00051 kPa and 0.000512 kPa
243.2 K, Crystal, Closed cell (Static) method	0.001022 kPa and 0.001023 kPa
248.15 K, Crystal, Closed cell (Static) method	0.00197 kPa and 0.001971 kPa and 0.001972 kPa
253.15 K, Crystal, Closed cell (Static) method	0.003705 kPa and 0.003709 kPa and 0.003703 kPa
253.15 K, Metastable liquid, Closed cell (Static) method	0.006217 kPa and 0.006221 kPa and 0.006222 kPa
258.15 K, Crystal, Closed cell (Static) method	0.006771 kPa and 0.006776 kPa and 0.006782 kPa
258.15 K, Metastable liquid, Closed cell (Static) method	0.01 kPa and 0.01001 kPa
263.15 K, Crystal, Closed cell (Static) method	0.01211 kPa
263.15 K, Metastable liquid, Closed cell (Static) method	0.01574 kPa and 0.01575 kPa and 0.01576 kPa
268.15 K, Crystal, Closed cell (Static) method	0.02109 kPa and 0.0211 kPa
268.15 K, Metastable liquid, Closed cell (Static) method	0.02431 kPa [middle of 4 runs]
273.15 K, Crystal, Closed cell (Static) method	0.03596 kPa and 0.03597 kPa
273.65 K, Metastable liquid, Closed cell (Static) method	0.03833 kPa and 0.03835 kPa and 0.03836 kPa
278.15 K, Closed cell (Static) method, Liquid	0.05478 kPa and 0.0548 kPa
283.15 K, Closed cell (Static) method, Liquid	0.0801 kPa and 0.08012 kPa
288.15 K, Closed cell (Static) method, Liquid	0.1151 kPa and 0.1152 kPa
293.15 K, Closed cell (Static) method, Liquid	0.1637 kPa
298.15 K, Closed cell (Static) method, Liquid	0.2295 kPa and 0.2296 kPa
303.15 K, Closed cell (Static) method, Liquid	0.3169 kPa and 0.317 kPa

Conditions	Normal melting temperature [°C]
Crystal, DTA	1.0

Conditions	Molar enthalpy of transition or fusion [kcal/mol]
[2]	3.3

CC1=CC[C@@H]2[C@H](C1)C2(C)C [(+)-3-carene]
Conditions	molar heat capacity at constant pressure [J/K/mol]	vapor or sublimation pressure
238.2 K, Liquid, Closed cell (Static) method	–	0.00159 kPa and 0.001592 kPa and 0.001594 kPa
243.2 K, Liquid, Closed cell (Static) method	–	0.002721 kPa and 0.002723 kPa
248.15 K, Liquid, Closed cell (Static) method	–	0.004526 kPa and 0.004529 kPa
253.15 K, Liquid, Closed cell (Static) method	–	0.007382 kPa and 0.007383 kPa and 0.007377 kPa
258.15 K, Liquid, Closed cell (Static) method	–	0.01179 kPa and 0.0118 kPa
263.15 K, Liquid, Closed cell (Static) method	–	0.01845 kPa and 0.01846 kPa
268.15 K, Liquid, Closed cell (Static) method	–	0.02832 kPa and 0.02833 kPa
273.15 K, Liquid, Closed cell (Static) method	–	0.04266 kPa and 0.04267 kPa
273.65 K, Liquid, Closed cell (Static) method	–	0.0444 kPa and 0.04442 kPa and 0.04443 kPa
278.15 K, Liquid, Closed cell (Static) method	–	0.06318 kPa and 0.06319 kPa
283.15 K, Liquid, Closed cell (Static) method	–	0.09204 kPa and 0.09205 kPa
288.15 K, Liquid, Closed cell (Static) method	–	0.1321 kPa
293.15 K, Liquid, Closed cell (Static) method	–	0.1868 kPa
298.15 K, Liquid, Closed cell (Static) method	–	0.2604 kPa and 0.2605 kPa
303.15 K, Liquid, Closed cell (Static) method	–	0.3585 kPa
308.15 K, Liquid, Closed cell (Static) method	–	0.4873 kPa
[1], 258.1 K, Liquid	235.6	–
[1], 263.2 K, Liquid	237.8	–
[1], 268.3 K, Liquid	240.2	–
[1], 273.4 K, Liquid	242.4	–
[1], 278.5 K, Liquid	244.9	–
[1], 283.6 K, Liquid	247.2	–
[1], 288.7 K, Liquid	249.6	–
[1], 293.8 K, Liquid	251.9	–
[1], 298.9 K, Liquid	254.3	–
[1], 304 K, Liquid	256.6	–
[1], 309.1 K, Liquid	259	–
[1], 314.2 K, Liquid	261.4	–
[1], 319.4 K, Liquid	263.7	–
[1], 324.5 K, Liquid	266.3	–
[1], 329.6 K, Liquid	268.9	–
[1], 334.7 K, Liquid	271.5	–
[1], 339.8 K, Liquid	274	–
[1], 344.9 K, Liquid	276.6	–
[1], 350 K, Liquid	279.3	–
[1], 355.1 K, Liquid	281.8	–

[1], Liquid, Large sample (1 g) DSC
Conditions	molar heat capacity at constant pressure [J/K/mol]
260.1 K	236.9
265 K	239.2
270 K	241.6
275 K	244.1
280 K	246.3
285 K	248.4
290 K	250.6
295 K	252.6
300 K	254.8
305 K	257.2
310 K	259.6

Liquid
Conditions	vapor or sublimation pressure
273.15 K	0.04241 kPa and 0.04243 kPa and 0.04244 kPa
278.15 K	0.06282 kPa and 0.06283 kPa
283.15 K	0.09152 kPa and 0.09153 kPa and 0.09154 kPa
288.15 K	0.1313 kPa
293.15 K	0.1855 kPa
298.15 K	0.2584 kPa and 0.2585 kPa
303.15 K	0.3553 kPa
308.15 K	0.4825 kPa

C[C@H]1CC[C@H]2C[C@@H]1C2(C)C [(-)-trans-pinane]
[1], Liquid, Large sample (1 g) DSC
Conditions	molar heat capacity at constant pressure [J/K/mol]
258.1 K	227.6
263.2 K	230.3
268.3 K	233.4
273.4 K	236.3
278.5 K	239.3
283.6 K	242.3
288.7 K	245.3
293.8 K	248.3
298.9 K	251.3
304 K	254.3
309.1 K	257.4

Liquid, Closed cell (Static) method
Conditions	vapor or sublimation pressure
238.15 K	0.002871 kPa and 0.002872 kPa
243.15 K	0.004792 kPa and 0.004794 kPa
248.15 K	0.007832 kPa and 0.007836 kPa and 0.007837 kPa
253.15 K	0.0125 kPa
258.15 K	0.01954 kPa
263.15 K	0.02999 kPa and 0.03 kPa
268.15 K	0.04518 kPa and 0.0452 kPa
273.15 K	0.06684 kPa and 0.06685 kPa and 0.06686 kPa
273.65 K	0.06947 kPa
278.15 K	0.09731 kPa and 0.09732 kPa
283.15 K	0.1394 kPa
288.15 K	0.1968 kPa
293.15 K	0.2741 kPa
298.15 K	0.3766 kPa and 0.3767 kPa
303.15 K	0.5114 kPa
308.15 K	0.6862 kPa and 0.6863 kPa

C=C(C)[C@H]1CC=C(C)CC1 [(R)-1-methyl-4-(1-methylethenyl)cyclohexene]
Liquid, Closed cell (Static) method
Conditions	vapor or sublimation pressure
238.2 K	0.001012 kPa and 0.001013 kPa
243.2 K	0.001755 kPa and 0.001756 kPa
248.15 K	0.002958 kPa and 0.002959 kPa and 0.00296 kPa
253.15 K	0.00489 kPa and 0.004891 kPa and 0.004889 kPa
258.15 K	0.0079 kPa and 0.007901 kPa
263.15 K	0.01251 kPa and 0.01252 kPa
268.15 K	0.01942 kPa
273.15 K	0.02957 kPa
273.65 K	0.0308 kPa and 0.03082 kPa
278.15 K	0.04422 kPa
283.15 K	0.06502 kPa and 0.06504 kPa and 0.06505 kPa
288.15 K	0.09414 kPa and 0.09416 kPa
293.15 K	0.1343 kPa
298.15 K	0.1888 kPa and 0.1889 kPa
303.15 K	0.262 kPa
308.15 K	0.3589 kPa

C=C(C)[C@@H]1CC=C(C)CC1 [(S)-1-methyl-4-(1-methylethenyl)cyclohexene]
[1], Liquid, Large sample (1 g) DSC
Conditions	molar heat capacity at constant pressure [J/K/mol]
260.1 K	240.3
265 K	242.5
270 K	244.8
275 K	247.1
280 K	249.2
285 K	251.3
290 K	253.4
295 K	255.8
300 K	257.8
305 K	260.2
310 K	262.5

Liquid, Closed cell (Static) method
Conditions	vapor or sublimation pressure
273.65 K	0.03073 kPa and 0.03074 kPa and 0.03075 kPa
278.15 K	0.0441 kPa and 0.04411 kPa
283.15 K	0.06487 kPa and 0.06488 kPa and 0.0649 kPa
288.15 K	0.09392 kPa and 0.09395 kPa
293.15 K	0.1339 kPa
298.15 K	0.1883 kPa
303.15 K	0.2609 kPa and 0.261 kPa
308.15 K	0.3575 kPa and 0.3576 kPa

— the NIST ThermoML archive (doi:10.1016/j.jct.2014.04.022)
